The values below come from ChEMBL document CHEMBL1201862, “PubChem BioAssay data set” (2004).

In one assay the target is Ephrin type-A receptor 4 (Mus musculus, UniProt Q03137). Briefly: EphA4 ligand-binding antagonists – biochemical, colorimetric, mouse EphA4, primary screen (AID 689). In kind it is functional.
Assay [1] can be described thus: HIV-1 Vif–A3G interaction blockers – biochemical, TR-FRET, GST-Vif 1-94, biotin-A3G peptide, dose response retest, primary screen (AID 1117319).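 Note: TR-FRET signal of purified GST-Vif binding a biotinylated A3G peptide; inhibitors lower the FRET signal by blocking Vif and A3G binding.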 In kind it is functional. Background: Time-resolved FRET reads energy transfer from a long-lived donor to a nearby acceptor.
The nature of assay [2]: IC50 of Artemis nuclease activity blockers – biochemical, fluorescence intensity, dose response (AID 720701).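 Note: Artemis endonuclease enzyme.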 In kind it is functional.
The next assay addresses Estrogen receptor beta (Homo sapiens, UniProt Q92731).
A further assay concerns INS1. Put plainly: INS-1E survival protection against cytokine death – cell-based, luminescence, retest, dose response (AID 449756).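 Note: cell death triggered by IL-1 beta plus TNF-alpha plus IFN-gamma mixture; protective hits raise ATP signal compared with cytokine alone wells.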 In kind it is functional. Conditions: Rattus norvegicus.
The subject of a further assay is BJ. Briefly: growth inhibition of engineered Ras-driven BJ cells – cell-based, alamar blue fluorescence, cherrypicked samples, dose response (AID 2631).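 Note: confirmatory dose-response assay in RAS-dependent BJ fibroblasts engineered with TERT, LT and ST, with cytotoxicity read by fluorescence.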 In kind it is functional. Conditions: Homo sapiens. Background: Resazurin is reduced to fluorescent resorufin, in cell work by metabolically active cells.
The target in assay [3] is E3 ubiquitin-protein ligase Mdm2 (Homo sapiens, UniProt Q00987). Briefly: MDM2-luc reporter signal enhancers, multi-concentration potency testing, MDM2 ubiquitin-protein ligase inhibitor program, whole-cell format, luminescence detection, 384-well microplate (AID 1394).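 Note: MDM2 E3 inhibitors raise luminescence so EC50 is for signal enhancement.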 In kind it is functional.
A short description of assay [4]: NIH-3T3 fibroblast cytotoxicity, dose response, cytotoxicity control, cell-based, fluorescence, Alamar Blue, secondary assay (AID 2327).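 Note: NIH-3T3 mouse fibroblasts cultured with fluconazole at 8 µg/mL.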 In kind it is functional.
For the next assay, the target named is Paired box protein Pax-8 (Homo sapiens, UniProt Q06710). Put plainly: PAX8 transcriptional activity inhibition in RMG-I – RMG-I cells, luciferase, cherry-pick, dose response (AID 687027).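 Note: luciferase reporter driven by Pax8 target thyroperoxidase promoter measured by SteadyGlo luminescence.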 In kind it is functional, cell-based.
A short description of assay [5]: general cell-killing toxicity readout – plate reader, dry powder samples, cytotoxicity control for PAX8 inhibitor project, dose response (AID 743021). In kind it is functional, cell-based.
Assay [6] in a line: M. tuberculosis growth inhibition, HTS (AID 449762). In kind it is functional.
The nature of assay [7]: Fluorescence Cell-Based Dose Response to Identify Inhibitors of Thrombin Receptor-Activating Peptide SFLLRN-Mediated P-Selectin Induction on Platelets. [Related pubchem assays: 1663 (Primary HTS), 1889 (retest at dose ), 1891 (counterscreen), 1678 (Project Summary)]. In kind it is functional. Background: Counterscreens check selectivity or assay interference.
The target of assay [8] is Luciferin 4-monooxygenase (Photinus pyralis, UniProt P08659). Put plainly: inhibition of purified Photinus pyralis luciferase – biochemical, luminescence, dose response (AID 1891).
Assay [9] is described as follows: Luminescence Cell-Based Dose Confirmation HTS to Identify Inhibitors of Platelet Dense Granule Release. [Related pubchem assays: 1663 (Primary HTS), 1678 (Summary of Project)]. In kind it is functional.

Molecules are shown by their SMILES. Calls of active or inactive are those of the source.

Sequence of Luciferin 4-monooxygenase (P08659 whole entry): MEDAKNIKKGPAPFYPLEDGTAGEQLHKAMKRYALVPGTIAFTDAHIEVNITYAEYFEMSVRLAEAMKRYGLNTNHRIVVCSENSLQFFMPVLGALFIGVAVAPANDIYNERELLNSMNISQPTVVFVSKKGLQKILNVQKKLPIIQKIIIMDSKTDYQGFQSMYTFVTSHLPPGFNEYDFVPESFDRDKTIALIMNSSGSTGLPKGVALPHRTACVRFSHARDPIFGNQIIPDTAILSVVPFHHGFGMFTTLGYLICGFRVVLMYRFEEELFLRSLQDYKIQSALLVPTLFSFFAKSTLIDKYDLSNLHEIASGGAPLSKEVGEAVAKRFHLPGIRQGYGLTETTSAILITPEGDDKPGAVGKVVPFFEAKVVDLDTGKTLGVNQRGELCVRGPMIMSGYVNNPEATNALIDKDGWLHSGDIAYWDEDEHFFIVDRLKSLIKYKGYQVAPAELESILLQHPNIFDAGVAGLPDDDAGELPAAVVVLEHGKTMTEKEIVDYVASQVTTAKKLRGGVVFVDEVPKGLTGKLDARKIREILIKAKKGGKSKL
Sequence of Paired box protein Pax-8 (Q06710 whole entry): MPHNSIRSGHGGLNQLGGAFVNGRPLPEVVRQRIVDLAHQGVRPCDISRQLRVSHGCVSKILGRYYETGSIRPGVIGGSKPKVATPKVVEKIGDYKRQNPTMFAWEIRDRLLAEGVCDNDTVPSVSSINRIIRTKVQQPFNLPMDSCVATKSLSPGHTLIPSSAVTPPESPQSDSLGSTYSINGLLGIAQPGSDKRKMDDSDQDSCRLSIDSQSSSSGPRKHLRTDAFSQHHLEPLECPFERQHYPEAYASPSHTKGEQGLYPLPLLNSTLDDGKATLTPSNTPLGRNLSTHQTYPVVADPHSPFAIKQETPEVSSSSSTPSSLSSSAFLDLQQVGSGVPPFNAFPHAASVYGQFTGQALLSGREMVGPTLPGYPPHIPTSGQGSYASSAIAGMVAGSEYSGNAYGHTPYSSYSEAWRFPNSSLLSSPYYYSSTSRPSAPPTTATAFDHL
Sequence of Estrogen receptor beta (Q92731 whole entry): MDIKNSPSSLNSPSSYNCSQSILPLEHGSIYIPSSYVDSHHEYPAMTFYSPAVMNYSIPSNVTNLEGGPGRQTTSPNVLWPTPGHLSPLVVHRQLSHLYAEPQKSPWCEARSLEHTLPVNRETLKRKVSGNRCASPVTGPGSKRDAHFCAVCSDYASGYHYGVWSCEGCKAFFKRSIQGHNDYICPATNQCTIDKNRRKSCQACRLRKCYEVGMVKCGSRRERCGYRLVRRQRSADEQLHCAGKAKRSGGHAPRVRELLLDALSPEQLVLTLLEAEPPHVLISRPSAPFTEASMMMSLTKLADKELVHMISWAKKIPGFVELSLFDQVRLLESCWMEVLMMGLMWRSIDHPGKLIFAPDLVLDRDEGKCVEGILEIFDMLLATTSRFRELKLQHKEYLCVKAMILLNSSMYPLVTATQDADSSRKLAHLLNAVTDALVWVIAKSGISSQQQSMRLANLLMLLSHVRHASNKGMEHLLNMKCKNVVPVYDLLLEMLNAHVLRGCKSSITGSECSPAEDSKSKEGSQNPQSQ
Sequence of Ephrin type-A receptor 4 (Q03137 whole entry): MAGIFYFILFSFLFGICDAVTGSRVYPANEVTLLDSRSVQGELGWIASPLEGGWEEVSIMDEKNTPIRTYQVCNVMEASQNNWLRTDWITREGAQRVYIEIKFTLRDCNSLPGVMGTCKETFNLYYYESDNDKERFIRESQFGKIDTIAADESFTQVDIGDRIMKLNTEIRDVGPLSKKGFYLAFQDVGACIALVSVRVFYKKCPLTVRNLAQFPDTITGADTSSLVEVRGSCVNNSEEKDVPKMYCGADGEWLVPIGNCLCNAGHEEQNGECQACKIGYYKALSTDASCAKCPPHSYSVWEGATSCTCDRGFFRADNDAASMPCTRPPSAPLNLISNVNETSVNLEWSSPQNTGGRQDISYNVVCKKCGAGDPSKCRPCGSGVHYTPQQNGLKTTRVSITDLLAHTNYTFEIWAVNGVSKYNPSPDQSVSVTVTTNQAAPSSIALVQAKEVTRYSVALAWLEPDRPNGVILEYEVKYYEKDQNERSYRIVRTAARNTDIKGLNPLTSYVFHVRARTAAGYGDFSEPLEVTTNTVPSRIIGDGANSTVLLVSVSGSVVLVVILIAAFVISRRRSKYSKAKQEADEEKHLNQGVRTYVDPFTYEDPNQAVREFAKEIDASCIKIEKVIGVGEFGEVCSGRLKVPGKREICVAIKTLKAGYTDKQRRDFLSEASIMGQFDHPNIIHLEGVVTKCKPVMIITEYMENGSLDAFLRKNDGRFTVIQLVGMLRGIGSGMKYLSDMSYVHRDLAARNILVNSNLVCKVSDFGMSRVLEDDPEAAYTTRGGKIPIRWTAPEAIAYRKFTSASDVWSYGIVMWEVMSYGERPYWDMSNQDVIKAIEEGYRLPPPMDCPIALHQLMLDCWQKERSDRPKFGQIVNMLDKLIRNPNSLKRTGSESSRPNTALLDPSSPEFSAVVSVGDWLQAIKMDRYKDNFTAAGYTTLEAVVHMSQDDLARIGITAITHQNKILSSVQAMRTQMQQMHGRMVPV
Sequence of E3 ubiquitin-protein ligase Mdm2 (Q00987 whole entry): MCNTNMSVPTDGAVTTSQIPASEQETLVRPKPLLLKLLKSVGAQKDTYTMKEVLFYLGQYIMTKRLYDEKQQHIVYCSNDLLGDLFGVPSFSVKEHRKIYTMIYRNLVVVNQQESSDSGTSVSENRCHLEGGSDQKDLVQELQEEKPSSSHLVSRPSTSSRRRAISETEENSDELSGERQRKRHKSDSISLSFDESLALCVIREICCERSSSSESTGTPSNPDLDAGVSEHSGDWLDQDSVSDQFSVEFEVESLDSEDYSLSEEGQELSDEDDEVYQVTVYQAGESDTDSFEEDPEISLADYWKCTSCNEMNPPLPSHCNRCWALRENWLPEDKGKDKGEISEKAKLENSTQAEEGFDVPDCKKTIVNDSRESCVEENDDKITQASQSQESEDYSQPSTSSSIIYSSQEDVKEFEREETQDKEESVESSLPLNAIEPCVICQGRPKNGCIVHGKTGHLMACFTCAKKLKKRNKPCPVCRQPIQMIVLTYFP

Turning to `Cc1ccc(C2=N/C(=C\c3cccs3)C(=O)N2Nc2ccccc2)cc1`, the IC50 on Ephrin type-A receptor 4 is 2.91 µM (active).
With `COc1ccc(NC(=O)CSc2nc3c(cc2C#N)CN(C)CC3)cc1`, the values for the concentration for half-maximal inhibition (IC50) (in [1]; in assay [2]; against Estrogen receptor beta) were > 100 µM (active), > 20 µM (inactive) and > 50 µM (not active), respectively.
For the molecule `CC(=O)/C=C/n1c(=S)oc2ccccc21`, the values for the AC50 (with INS1; on Paired box protein Pax-8; in assay [5]) were 8.12 µM (active), 5.95 µM (active) and 10 µM (active), respectively. In addition, the EC50 is 0.508 µM (inconclusive) in the assay on BJ, 0.01 µM (not active) in assay [3] and 3.97 µM (inconclusive) in assay [4].
Regarding `Nc1ccc2c(c1)oc1ccccc12`, in assay [6], the IC50 is > 100 µM (active).
As for `COC(=O)c1ccccc1NC(=O)Nc1ccc2c(c1)OCO2`, the EC50 was < 100 µM (not active) in [7], > 112 µM (not active) in assay [8] and 5.7 µM (active) in [9].

As a reminder, the IC50 is the concentration needed to halve the response being measured. For orientation: AC50 means the concentration giving half of the maximal activity seen. In general, EC50 refers to the concentration that produces a half-maximal response.
